# Experiments:
# [1] = biological target: T1, VHL:EloC:EloB (VCB) complex (Homo sapiens, UniProt P40337); experiment: biochemical; design: SPR binary and ternary complex binding affinity and kinetics; settings: SPR, binary
# T1 construct: VHL 54-213 (His6 tag removed by TEV), EloC 17-112, EloB 1-104 co-expressed in E. coli; heterotrimer; with Elongin-C; Elongin-B
# Description: (§1) With the objective of identifying molecules that potently degrade multiple KRAS mutants we next sought to employ structure-based design using the solved ternary co-crystal structure of compound 3 to improve ternary complex stability and intracellular VHL engagement. […] Analysis of the VCB:compound 3:KRAS^G12V co-crystal structure (Fig. 1H) highlighted an opportunity to enhance interactions within the ternary complex by improving π-stacking between the exit vector amide of the VHL ligand and Tyr112. We therefore switched the amide for an isoxazole, which has been previously reported to improve VCB affinity in this position in other contexts ([22]), yielding compound 4 (Fig. 2A). A ternary complex co-crystal structure of VCB:compound 4:KRAS^G12V (PDB 8QW7) confirmed a consistent overall binding mode to that observed for compound 3 (RMSD = 0.72 Å), with compound 4 able to engage in π-stacking interaction between the isoxazole and Tyr112 of VCB as designed (Fig. 2B). […] FP, SPR and cellular target engagement studies support a minor improvement in binary VHL engagement for compound 4, with moderate cooperativity retained (fig. S2A-C, table S1). […] We then investigated the impact of these structural changes on degradation kinetics in live HiBiT-tagged GP5d cells (fig. S3A-D). […] Aiming to measure ternary complex stability, we noted that the FP assay reached the limits of quantification due to ternary KD approaching that of the assay probe (fig. S8B).
# [2] = biological target: KRAS^G12D (Homo sapiens, UniProt P01116, G12D); design: endogenous; KRAS degradation by capillary electrophoresis immunodetection; settings: degrader; read-out: DC50 24 h GP5d
# Experimental: (§2) Protein Detection by Capillary Electrophoresis Cells (50 000) were seeded the day before treatment into 96-well clear-flat bottom plates and incubated overnight (37 °C, humidified tissue culture incubator, 5% CO2). Compounds were added from DMSO stock solution using a digital dispenser and cells are incubated at 37 °C as specified (24 hours for KRAS degradation, 6 hours for determination of pERK levels). At the end of the incubation, medium was removed, cells washed with ice cold PBS, PBS removed and 50 µL lysis buffer (Meso Scale Discovery #R60TX-2) supplemented with 1:100 protease inhibitor solution, 1:100 phosphatase inhibitor I, 1:100 phosphatase inhibitor II (Meso Scale Discovery #R70AA-1), 0.5 µL/mL Benzonase (Novagen #70664-3) and 10 mM dithiothreitol added to each well. Plates with lysis buffer were immediately transferred to -80 °C freezer for at least 2 hours and then thawed on ice. Lysates were transferred to a 96 well V-bottom plate and insoluble debris was pelleted by centrifugation for 20 min. at 4 000 rpm. 40 µL of the supernatant were transferred to a fresh Eppendorf PCR plate. Analysis of protein levels was conducted using the Wes System, ProteinSimple (https://www.bio-techne.com/) as specified by the manufacturer. Briefly, Wes Master Mix (12-230 kDa WES Separation Module, 8 × 25 capillary cartridges, ProteinSimple #SM-W004) and molecular weight markers were prepared as specified in the manufacturer’s recommendations. To detect primary antibodies, anti-rabbit (Protein Simple #DM-001) or anti-mouse (Protein Simple #DM-002) detection modules were used. 7.2 µL lysate + 1.8 µL master mix were combined and heated to 95 °C for 5 min.
# [3] = tested on: NCI-H358; experiment: cells; design: pERK levels by capillary electrophoresis; settings: Homo sapiens, NCI-H358, 6 h
# Experimental: as §2, with “5 min. Th” for “5 min.”
# [4] = tested on: HEK293; experiment: cells; design: pERK levels by capillary electrophoresis; settings: Homo sapiens, HEK293, 6 h
# Experimental: as §2, with “5 min. Th” for “5 min.”
# [5] = tested on: A375; experiment: cells; design: pERK levels by capillary electrophoresis; settings: Homo sapiens, A-375, 6 h
# Experimental: as §2, with “5 min. Th” for “5 min.”
# [6] = tested on: SW620; experiment: cells; design: pERK levels by capillary electrophoresis; settings: Homo sapiens, SW-620, 6 h
# Experimental: as §2, with “5 min. Th” for “5 min.”
# [7] = biological target: T2, KRAS (Homo sapiens, UniProt P01116, C118S/G12V); experiment: biochemical; design: SPR binary and ternary complex binding affinity and kinetics; settings: GDP-bound; read-out: SPR KRAS^G12V GDP KD
# T2 construct: residues 1-169, C118S background; His6 tag removed, E. coli; biotinylated for SPR
# Description: as §1
# [8] = biological target: T3, KRAS^G12D GDP (Homo sapiens, UniProt P01116, C118S/G12D); experiment: biochemical; design: SPR binary and ternary complex binding affinity and kinetics; settings: GDP-bound; read-out: SPR KRAS^G12D GDP KD
# T3 construct: residues 1-169, C118S background
# Description: as §1
# T2 sequence (P01116 1-169 G12V/C118S): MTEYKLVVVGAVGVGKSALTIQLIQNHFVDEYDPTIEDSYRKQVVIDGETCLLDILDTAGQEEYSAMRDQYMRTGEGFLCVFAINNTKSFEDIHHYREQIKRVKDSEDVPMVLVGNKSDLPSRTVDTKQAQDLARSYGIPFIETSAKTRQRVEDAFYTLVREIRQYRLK
# KRAS^G12D, sequence (P01116 whole entry G12D): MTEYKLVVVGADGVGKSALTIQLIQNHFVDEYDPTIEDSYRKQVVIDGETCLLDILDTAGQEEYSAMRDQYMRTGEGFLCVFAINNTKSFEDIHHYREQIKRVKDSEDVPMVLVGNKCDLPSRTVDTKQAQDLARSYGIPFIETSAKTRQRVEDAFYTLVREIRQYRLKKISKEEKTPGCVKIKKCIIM
# T3 sequence (P01116 whole entry G12D/C118S, the tested form may be a part): as the sequence (P01116 whole entry G12D) above, with C118S counted along it
# T1 sequence (Q15369 17-112): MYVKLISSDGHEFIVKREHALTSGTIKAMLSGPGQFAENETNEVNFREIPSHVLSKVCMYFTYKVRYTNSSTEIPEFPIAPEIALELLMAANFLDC
# T1 sequence (Q15370 1-104, further chain): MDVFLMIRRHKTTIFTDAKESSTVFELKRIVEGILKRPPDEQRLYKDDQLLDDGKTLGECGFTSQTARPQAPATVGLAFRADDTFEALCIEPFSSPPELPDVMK
# T1 sequence (P40337 54-213): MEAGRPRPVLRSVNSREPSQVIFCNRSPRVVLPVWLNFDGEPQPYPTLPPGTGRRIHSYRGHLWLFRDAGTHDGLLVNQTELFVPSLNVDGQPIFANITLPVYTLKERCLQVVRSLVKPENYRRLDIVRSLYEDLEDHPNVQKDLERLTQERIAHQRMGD
SMILES,Kd [1],DC50 [2],IC50 [3],IC50 [4],IC50 [5],IC50 [6],Kd [7],kon ([1]; read-out: SPR VCB kon [1/(M s)]),Kd [8]
"Cc1ncsc1-c1ccc([C@H](CO)NC(=O)[C@@H]2C[C@@H](O)CN2C(=O)[C@H](C(C)C)n2cc(OCCCCN3CCCN(c4nccc(-c5noc([C@@]6(C)CCCc7sc(N)c(C#N)c76)n5)n4)[C@@H](C)C3)nn2)cc1 [compound 7, ACBI3]",11.1 ± 0.3 nM,2.1 nM,–,–,–,–,–,–,–
Cc1ncsc1-c1ccc(CNC(=O)C2CC(O)CN2C(=O)C(c2cc(OCCCCN3CCCN(c4nccc(-c5noc(C6(C)CCCc7sc(N)c(C#N)c76)n5)n4)C(C)C3)no2)C(C)C)cc1 (stereo not shown) [compound 5],–,–,> 1000 nM,> 1000 nM,> 1000 nM,> 1000 nM,–,–,–
Cc1ncsc1-c1ccc(CNC(=O)[C@@H]2C[C@@H](O)CN2C(=O)[C@@H](NC(=O)CCCCCN2CCCN(c3nccc(-c4noc([C@@]5(C)CCCc6sc(N)c(C#N)c65)n4)n3)[C@@H](C)C2)C(C)(C)C)cc1 [compound 3],–,31.8 nM,> 1000 nM,> 1000 nM,> 1000 nM,708 nM,9 ± 1 nM,136000 M⁻¹ s⁻¹,13 ± 2 nM
Cc1ncsc1-c1ccc(CNC(=O)[C@@H]2C[C@@H](O)CN2C(=O)[C@@H](c2cc(OCCCCN3CCCN(c4nccc(-c5noc([C@@]6(C)CCCc7sc(N)c(C#N)c76)n5)n4)[C@@H](C)C3)no2)C(C)C)cc1 [compound 4],–,0.9 nM,8.2 nM,> 1000 nM,> 1000 nM,9.2 nM,8 nM,–,11 ± 1 nM
Cc1ncsc1-c1ccc(CNC(=O)[C@@H]2C[C@@H](O)CN2C(=O)[C@@H](NC(=O)COCCCN2CCCN(c3nccc(-c4noc([C@@]5(C)CCCc6sc(N)c(C#N)c65)n4)n3)[C@@H](C)C2)C(C)(C)C)cc1 [compound 2],737 ± 388 nM,607 nM,–,–,–,–,136 ± 1 nM,–,240 ± 31 nM

# From article doi:10.1101/2023.10.24.563163v2, “Targeting cancer with small molecule pan-KRAS degraders” (biorxiv, 2024)
